Several values for one entry are separate records, joined by “and”; a condition that tells them apart may be missing. Identical values can stand only once. Like-named read-outs stand apart in the source and are kept apart here.
Legend:
[1] = Cytotoxicity assay (MTS) towards L929 normal fibroblasts; conditions: mouse, L929 fibroblasts
HEK293/R2 = experiment: Cell proliferation assay without modulator, HEK293/R2; format: cell-based; conditions: Homo sapiens, read-out: IC50 of anticancer drug, HEK293/R2
[2] = system: HEK293/pcDNA3.1 cell line; experiment: Cell proliferation assay without modulator, HEK293/pcDNA3.1; format: cell-based; conditions: Homo sapiens, read-out: IC50 of anticancer drug, wild type HEK293/pcDNA3.1
MCF7-MX100 = experiment: Cell proliferation assay without modulator, MCF7-MX100; format: cell-based, human
MCF7 = experiment: Cell proliferation assay without modulator, MCF7; format: cell-based; conditions: Homo sapiens, read-out: IC50 of anticancer drug, wild type MCF7
L929 cells = experiment: Cytotoxicity assay (MTS) towards L929 normal fibroblasts; conditions: read-out: Cytotoxicity (IC50, μM) L929; L929 mouse fibroblasts
BCRP [3] = molecular target: T1, BCRP (Homo sapiens, UniProt Q9UNQ0); experiment: Reversal of BCRP-mediated topotecan resistance in HEK293/R2 cells (cell proliferation assay); conditions: triazole dimers, anti vs syn; cell line not given (Table 1)
T1 sequence (Q9UNQ0 1-655): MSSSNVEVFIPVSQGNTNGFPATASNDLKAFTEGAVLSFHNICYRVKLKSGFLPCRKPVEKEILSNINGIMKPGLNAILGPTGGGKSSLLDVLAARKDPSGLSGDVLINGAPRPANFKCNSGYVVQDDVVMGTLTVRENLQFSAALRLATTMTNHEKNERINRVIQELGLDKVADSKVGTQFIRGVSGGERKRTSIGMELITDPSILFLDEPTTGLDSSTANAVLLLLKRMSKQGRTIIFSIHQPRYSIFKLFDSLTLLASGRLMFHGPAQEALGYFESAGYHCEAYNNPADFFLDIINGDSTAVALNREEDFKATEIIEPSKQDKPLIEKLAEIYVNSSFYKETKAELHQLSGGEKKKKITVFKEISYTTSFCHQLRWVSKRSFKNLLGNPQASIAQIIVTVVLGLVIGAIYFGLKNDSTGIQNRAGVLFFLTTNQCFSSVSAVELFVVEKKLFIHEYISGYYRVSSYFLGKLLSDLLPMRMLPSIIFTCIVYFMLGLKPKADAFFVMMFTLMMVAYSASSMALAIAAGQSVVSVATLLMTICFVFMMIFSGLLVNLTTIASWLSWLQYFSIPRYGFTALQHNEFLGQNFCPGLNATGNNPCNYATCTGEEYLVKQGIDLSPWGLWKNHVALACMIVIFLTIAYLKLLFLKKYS

[4] = system: P-gp, MRP1 and BCRP transporters; experiment: Selectivity for ABC transporters, determined from % of reversion (Tables 1 and 2); format: cell-based, human; conditions: determined from % of reversion in Table 1 (>80% strongly, 79-50% moderately selective)
Procedure, shortened: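 Compounds are grouped as acting on one, two or all three of P-gp, MRP1 and BCRP. The basis is percent reversion: 79-50% means moderate selectivity, above 80% strong selectivity.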

MRP1 [5] = molecular target: T2, MRP1 (Homo sapiens, UniProt P33527); experiment: Reversal of MRP1-mediated DOX resistance in 2008/MRP1 cells (cell proliferation assay); conditions: for DOX resistance of 2008/MRP1 Therapeutic index: (IC50 towards L929 or Raw264.7)/(EC50 for reversing drug resistance)
P-gp [6] = molecular target: T3, P-gp (Homo sapiens, UniProt P08183); conditions: mouse (L929 or Raw264.7) and human (LCC6MDR), 5 days
in vitro = conditions: mouse
P-gp [7] = molecular target: T3, P-gp; experiment: cell-based
MRP1 [8] = molecular target: T2, MRP1; experiment: Reversal of MRP1-mediated vincristine resistance in 2008/MRP1 cells (cell proliferation assay); conditions: (IC50 towards L929 or Raw264.7)/(EC50 for reversing drug resistance)
BCRP [9] = molecular target: T1, BCRP; experiment: Reversal of BCRP-mediated topotecan resistance in MCF7-MX100 cells (cell proliferation assay); conditions: (IC50 towards L929 or Raw264.7)/(EC50 for reversing drug resistance)
LCC6MDR = experiment: Cell proliferation assay without modulator, LCC6MDR; format: cell-based, human
LCC6 cells = experiment: Cell proliferation assay without modulator, LCC6; format: cell-based; conditions: Homo sapiens, LCC-6, read-out: IC50 of anticancer drug, parental LCC6 cells
2008/P cells = experiment: Cell proliferation assay, 2008/P; format: cell-based; conditions: Homo sapiens; without modulator; read-out: IC50 of anticancer drug, parental 2008/P cells
2008/MRP1 = experiment: Cell proliferation assay, 2008/MRP1

T2 sequence (P33527 whole entry): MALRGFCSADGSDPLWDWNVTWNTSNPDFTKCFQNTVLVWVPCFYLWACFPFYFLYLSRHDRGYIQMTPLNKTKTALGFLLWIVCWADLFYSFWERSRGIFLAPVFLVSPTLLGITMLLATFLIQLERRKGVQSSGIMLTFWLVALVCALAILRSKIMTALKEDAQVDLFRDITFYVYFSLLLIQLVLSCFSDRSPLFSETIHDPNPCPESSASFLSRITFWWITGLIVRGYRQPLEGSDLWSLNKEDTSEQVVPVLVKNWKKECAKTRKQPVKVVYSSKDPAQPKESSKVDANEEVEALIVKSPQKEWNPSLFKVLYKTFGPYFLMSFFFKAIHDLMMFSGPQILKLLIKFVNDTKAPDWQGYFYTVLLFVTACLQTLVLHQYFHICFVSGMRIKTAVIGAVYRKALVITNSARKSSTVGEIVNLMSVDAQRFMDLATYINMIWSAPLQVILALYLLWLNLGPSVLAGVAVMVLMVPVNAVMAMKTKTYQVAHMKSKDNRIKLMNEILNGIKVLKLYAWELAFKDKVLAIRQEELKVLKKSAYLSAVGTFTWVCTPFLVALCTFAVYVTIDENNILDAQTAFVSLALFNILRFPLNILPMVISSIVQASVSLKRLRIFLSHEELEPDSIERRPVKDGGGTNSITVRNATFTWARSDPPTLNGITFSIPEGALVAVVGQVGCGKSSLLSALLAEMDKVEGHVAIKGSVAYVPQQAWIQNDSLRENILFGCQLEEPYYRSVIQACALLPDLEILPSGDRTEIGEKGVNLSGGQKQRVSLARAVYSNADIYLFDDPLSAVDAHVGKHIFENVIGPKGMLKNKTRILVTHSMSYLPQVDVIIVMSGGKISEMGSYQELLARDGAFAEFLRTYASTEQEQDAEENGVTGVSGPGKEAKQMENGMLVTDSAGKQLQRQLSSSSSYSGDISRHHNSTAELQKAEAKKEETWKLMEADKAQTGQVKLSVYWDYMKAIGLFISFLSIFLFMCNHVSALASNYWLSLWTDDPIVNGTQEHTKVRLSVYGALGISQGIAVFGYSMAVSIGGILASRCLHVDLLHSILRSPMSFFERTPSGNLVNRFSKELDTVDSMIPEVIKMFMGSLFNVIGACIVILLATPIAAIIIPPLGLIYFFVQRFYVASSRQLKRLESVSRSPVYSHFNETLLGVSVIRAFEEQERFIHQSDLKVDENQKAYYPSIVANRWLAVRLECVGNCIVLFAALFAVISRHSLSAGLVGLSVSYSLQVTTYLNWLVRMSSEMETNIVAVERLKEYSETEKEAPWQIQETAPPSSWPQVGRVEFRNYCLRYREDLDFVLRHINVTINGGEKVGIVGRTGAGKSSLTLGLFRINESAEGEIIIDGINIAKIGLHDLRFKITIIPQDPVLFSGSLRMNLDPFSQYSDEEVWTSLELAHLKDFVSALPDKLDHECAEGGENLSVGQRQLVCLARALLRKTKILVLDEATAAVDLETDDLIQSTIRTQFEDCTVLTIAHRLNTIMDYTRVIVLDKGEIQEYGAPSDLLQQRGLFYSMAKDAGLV
T3 sequence (P08183 whole entry): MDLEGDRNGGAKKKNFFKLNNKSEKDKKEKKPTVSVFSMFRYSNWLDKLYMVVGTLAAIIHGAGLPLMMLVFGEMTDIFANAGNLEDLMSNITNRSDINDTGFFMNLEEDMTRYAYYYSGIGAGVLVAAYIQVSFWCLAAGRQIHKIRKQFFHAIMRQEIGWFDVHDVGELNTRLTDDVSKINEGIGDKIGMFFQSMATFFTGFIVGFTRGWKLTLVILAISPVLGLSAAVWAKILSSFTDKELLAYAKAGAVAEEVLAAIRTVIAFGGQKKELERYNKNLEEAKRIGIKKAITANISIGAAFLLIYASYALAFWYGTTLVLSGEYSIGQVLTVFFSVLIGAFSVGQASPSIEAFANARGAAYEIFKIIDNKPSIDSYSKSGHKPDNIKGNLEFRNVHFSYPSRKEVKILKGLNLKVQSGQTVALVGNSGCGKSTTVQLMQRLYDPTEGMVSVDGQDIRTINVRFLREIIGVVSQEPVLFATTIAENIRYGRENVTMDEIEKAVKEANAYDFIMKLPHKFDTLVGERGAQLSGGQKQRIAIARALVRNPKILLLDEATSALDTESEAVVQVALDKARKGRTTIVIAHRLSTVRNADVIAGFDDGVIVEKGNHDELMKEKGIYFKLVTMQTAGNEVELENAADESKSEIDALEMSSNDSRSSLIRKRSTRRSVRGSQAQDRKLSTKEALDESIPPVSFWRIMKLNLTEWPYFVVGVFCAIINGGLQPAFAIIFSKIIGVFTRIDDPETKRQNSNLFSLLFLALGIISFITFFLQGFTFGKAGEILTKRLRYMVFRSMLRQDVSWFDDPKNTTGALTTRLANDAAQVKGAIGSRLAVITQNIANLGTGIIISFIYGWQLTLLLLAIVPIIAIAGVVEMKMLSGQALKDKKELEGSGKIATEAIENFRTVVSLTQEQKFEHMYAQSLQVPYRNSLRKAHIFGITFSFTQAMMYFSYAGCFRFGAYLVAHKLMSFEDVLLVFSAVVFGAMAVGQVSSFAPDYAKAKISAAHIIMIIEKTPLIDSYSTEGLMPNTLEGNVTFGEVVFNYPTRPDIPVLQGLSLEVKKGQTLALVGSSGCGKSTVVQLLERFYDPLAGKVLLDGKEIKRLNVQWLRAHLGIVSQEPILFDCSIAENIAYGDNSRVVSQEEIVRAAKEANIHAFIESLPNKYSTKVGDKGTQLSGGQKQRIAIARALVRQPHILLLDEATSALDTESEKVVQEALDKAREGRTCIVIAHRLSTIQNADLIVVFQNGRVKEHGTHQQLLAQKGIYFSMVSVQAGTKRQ

C/C=C/C[C@@H](C)C(=O)[C@H]1C(=O)N[C@@H](C(C)C)C(=O)N(C)CC(=O)N(C)[C@@H](CC(C)C)C(=O)N[C@@H](C(C)C)C(=O)N(C)[C@@H](CC(C)C)C(=O)N[C@@H](C)C(=O)N[C@H](C)C(=O)N(C)[C@@H](CC(C)C)C(=O)N(C)[C@@H](CC(C)C)C(=O)N(C)[C@@H](C(C)C)C(=O)N1C [PSC833]
IC50 at 5 days [1]: > 100 µM

CC[C@@]1(O)C(=O)OCc2c1cc1n(c2=O)Cc2cc3c(CN(C)C)c(O)ccc3nc2-1 [topotecan]
IC50 (HEK293/R2): 508 ± 31.1 nM | IC50 [2]: 15.8 ± 1.5 nM | fold more resistance of MCF7-MX100 than wild type MCF7 (MCF7-MX100): about 104.4 fold | IC50 (MCF7-MX100; Homo sapiens, MCF7/MX100, read-out: IC50 of anticancer drug, MCF7-MX100): 33.4 ± 2.1 µM | IC50 (MCF7): 320 ± 70 nM

COc1ccc2c3c([nH]c2c1)[C@H](CC(C)C)N1C(=O)[C@H](CCC(=O)OC(C)(C)C)NC(=O)[C@@H]1C3 [Ko143]
IC50 (L929 cells): 29 µM and 29.2 µM

Cc1ccc2oc(-c3ccc(OCCCCc4cnnn4CCOCCOc4ccc(-c5cc(=O)c6ccccc6o5)cc4)cc3)cc(=O)c2c1 [syn-Ac5Az1, 6-Methyl-2-(4-(4-(1-(2-(2-(4-(4-oxo-4H-chromen-2-yl)phenoxy)ethoxy)ethyl)-1H-1,2,3-triazol-5-yl)butoxy)phenyl)-4H-chromen-4-one]
Relative fold (RF), BCRP-modulating activity (BCRP [3]): 11.6

Cc1ccc2oc(-c3ccc(OCCCCc4cn(CCOCCOCCOc5ccc(-c6cc(=O)c7ccccc7o6)cc5)nn4)cc3)cc(=O)c2c1 [Ac5Az2, 6-Methyl-2-(4-(4-(1-(2-(2-(2-(4-(4-oxo-4H-chromen-2-yl)phenoxy)ethoxy)ethoxy)ethyl)-1H-1,2,3-triazol-4-yl)butoxy)phenyl)-4H-chromen-4-one]
Selectivity for ABC transporters (P-gp, MRP1, BCRP) [4]: mono-MRP1 selectivity | Relative fold (RF), BCRP-modulating activity (BCRP [3]): 13.5

Cc1ccc2oc(-c3ccc(OCCCCc4cnnn4CCOCCOCCOc4ccc(-c5cc(=O)c6ccccc6o5)cc4)cc3)cc(=O)c2c1 [syn-Ac5Az2, 6-Methyl-2-(4-(4-(1-(2-(2-(2-(4-(4-oxo-4H-chromen-2-yl)phenoxy)ethoxy)ethoxy)ethyl)-1H-1,2,3-triazol-5-yl)butoxy)phenyl)-4H-chromen-4-one]
MRP1 inhibitory activity of syn-isomer compared with anti-isomer (MRP1 [5]; syn vs anti triazole regioisomer): poorer MRP1 inhibitory activity than the anti-isomer Ac5Az2 | Relative fold (RF), BCRP-modulating activity (BCRP [3]): 9.3

Cc1ccc2oc(-c3ccc(OCCOCCOCCn4cc(CCCCOc5ccc6c(=O)cc(-c7ccccc7)oc6c5)nn4)cc3)cc(=O)c2c1 [Ac12Az3, 6-Methyl-2-(4-(2-(2-(2-(4-(4-((4-oxo-2-phenyl-4H-chromen-7-yl)oxy)butyl)-1H-1,2,3-triazol-1-yl)ethoxy)ethoxy)ethoxy)phenyl)-4H-chromen-4-one]
Selectivity for ABC transporters (P-gp, MRP1, BCRP) [4]: multi-selectivity towards P-gp, MRP1 and BCRP transporters | Paclitaxel resistance of LCC6MDR Therapeutic index (P-gp [6]): >263.2 | IC50 at 5 days (in vitro): > 50 µM | EC50 (P-gp [7]): 190 nM | DOX resistance of 2008/MRP1 Therapeutic index (MRP1 [5]): >333.8 | Vincristine resistance of 2008/MRP1 Therapeutic index (MRP1 [8]): >613.5

Cc1ccc2oc(-c3ccc(OCCCCc4cn(CCOCCOCCOc5ccc6c(=O)cc(-c7ccccc7)oc6c5)nn4)cc3)cc(=O)c2c1 [Ac5Az12, 6-Methyl-2-(4-(4-(1-(2-(2-(2-((4-oxo-2-phenyl-4H-chromen-7-yl)oxy)ethoxy)ethoxy)ethyl)-1H-1,2,3-triazol-4-yl)butoxy)phenyl)-4H-chromen-4-one]
Selectivity for ABC transporters (P-gp, MRP1, BCRP) [4]: mono-BCRP selectivity | Paclitaxel resistance of LCC6MDR Therapeutic index (P-gp [6]): >709.2 | IC50 at 5 days (in vitro): > 100 µM | EC50 (P-gp [7]): 141 ± 1 nM | DOX resistance of 2008/MRP1 Therapeutic index (MRP1 [5]): >759.3 | Topotecan resistance of MCF7-MX100 Therapeutic index (BCRP [9]): >1600.0 | Vincristine resistance of 2008/MRP1 Therapeutic index (MRP1 [8]): >1081.1

CC(=O)O[C@H]1C(=O)[C@@]2(C)[C@H]([C@H](OC(=O)c3ccccc3)[C@]3(O)C[C@H](OC(=O)[C@H](O)[C@@H](NC(=O)c4ccccc4)c4ccccc4)C(C)=C1C3(C)C)[C@]1(OC(C)=O)CO[C@@H]1C[C@@H]2O [paclitaxel]
fold greater resistance of LCC6MDR than parental LCC6 cells (LCC6MDR): about 99.2 fold | IC50 (LCC6MDR; Homo sapiens, LCC6MDR, read-out: IC50 of anticancer drug, LCC6MDR): 159 ± 6.1 nM | IC50 (LCC6 cells): 1.6 ± 0.3 nM

COc1cccc2c1C(=O)c1c(O)c3c(c(O)c1C2=O)C[C@@](O)(C(=O)CO)C[C@@H]3O[C@H]1C[C@H](N)[C@H](O)[C@H](C)O1 [DOX]
IC50 (2008/P cells): 50.1 ± 3.9 nM | IC50 (2008/MRP1; Homo sapiens, 2008/MRP1, read-out: IC50 of anticancer drug, 2008/MRP1, without modulator): 420 ± 17.4 nM | IC50 (2008/MRP1; read-out: IC50 of anticancer drug, 2008/MRP1, without modulator): 413 nM | fold more resistance of 2008/MRP1 than parental 2008/P (2008/MRP1; without modulator): about 8.4 fold
